# Results as given in the supplement of paper PMC10307832.
# Key:
# Assay in all cases: relative viability (nuclei count vs DMSO), 5 days (fraction); higher = more cells survive
# CAL-12T = tested on: CAL-12T
# Procedure, shortened: (§1)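 Lung cancer cell lines in 1536-well plates got either a single drug or a fixed anchor-drug dose together with five library-drug doses (not always all listed) in √10 steps, by pin tool, on the day after seeding. Nuclei were counted after 5 days, and relative viability is the treated-to-vehicle ratio of nuclei counts. Values are medians of duplicate plates.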
# NCI-H322M = tested on: NCI-H322M
# Procedure, shortened: as §1
# HCC-827 = tested on: HCC-827
# Procedure, shortened: as §1
# NCI-H2087 = tested on: NCI-H2087
# Procedure, shortened: as §1
# RERF-LC-KJ = tested on: RERF-LC-KJ
# Procedure, shortened: as §1
# LXF-289 = tested on: LXF-289
# Procedure, shortened: as §1
# NCI-H3122 = tested on: NCI-H3122
# Procedure, shortened: as §1
# LCLC-103H = tested on: LCLC-103H
# Procedure, shortened: as §1
# SK-LU-1 = tested on: SK-LU-1
# Procedure, shortened: as §1
# BEN = tested on: BEN
# Procedure, shortened: as §1
# NCI-H2405 = tested on: NCI-H2405
# Procedure, shortened: as §1
# NCI-H727 = tested on: NCI-H727
# Procedure, shortened: as §1
# 201T = tested on: 201T
# Procedure, shortened: as §1
# NCI-H1437 = tested on: NCI-H1437
# Procedure, shortened: as §1
# NCI-H647 = tested on: NCI-H647
# Procedure, shortened: as §1
# NCI-H1792 = tested on: NCI-H1792
# Procedure, shortened: as §1
# NCI-H2228 = tested on: NCI-H2228
# Procedure, shortened: as §1
# LCLC-97TM1 = tested on: LCLC-97TM1
# Procedure, shortened: as §1
# NCI-H1650 = tested on: NCI-H1650
# Procedure, shortened: as §1
# NCI-H1944 = tested on: NCI-H1944
# Procedure, shortened: as §1
smiles,measurement,setting,value
COc1nc(C)cnc1NS(=O)(=O)c1cccnc1-c1ccc(-c2nnco2)cc1 [Zibotentan] + CC(C)C[C@H](NC(=O)[C@H](Cc1ccccc1)NC(=O)c1cnccn1)B(O)O [Bortezomib] (partner 0.002 µM),relative viability,CAL-12T; first compound 0.08 µM,0.941
same,relative viability,CAL-12T; first compound 0.8 µM,1.01
same,relative viability,CAL-12T; first compound 2.53 µM,1.01
same,relative viability,NCI-H322M; first compound 0.08 µM,1.05
same,relative viability,NCI-H322M; first compound 0.253 µM,1.22
same,relative viability,NCI-H322M; first compound 0.8 µM,1.18
same,relative viability,NCI-H322M; first compound 2.53 µM,1.34
same,relative viability,HCC-827; first compound 0.08 µM,1.08
same,relative viability,HCC-827; first compound 0.253 µM,0.994
same,relative viability,HCC-827; first compound 0.8 µM,1.05
same,relative viability,HCC-827; first compound 2.53 µM,1.04
same,relative viability,NCI-H2087; first compound 0.08 µM,0.939
same,relative viability,NCI-H2087; first compound 0.253 µM,0.801
same,relative viability,NCI-H2087; first compound 0.8 µM,0.736
same,relative viability,NCI-H2087; first compound 2.53 µM,0.873
same,relative viability,RERF-LC-KJ; first compound 0.08 µM,1.04
same,relative viability,RERF-LC-KJ; first compound 0.253 µM,1.1
same,relative viability,RERF-LC-KJ; first compound 0.8 µM,1.09
same,relative viability,RERF-LC-KJ; first compound 2.53 µM,0.998
same,relative viability,LXF-289; first compound 0.08 µM,1.05
same,relative viability,LXF-289; first compound 0.253 µM,0.993
same,relative viability,LXF-289; first compound 0.8 µM,1.05
same,relative viability,LXF-289; first compound 2.53 µM,0.989
same,relative viability,NCI-H3122; first compound 0.08 µM,1.02
same,relative viability,NCI-H3122; first compound 0.253 µM,0.979
same,relative viability,NCI-H3122; first compound 0.8 µM,0.992
same,relative viability,NCI-H3122; first compound 2.53 µM,1.03
same,relative viability,LCLC-103H; first compound 0.08 µM,1.02
same,relative viability,LCLC-103H; first compound 0.253 µM,1
same,relative viability,LCLC-103H; first compound 0.8 µM,1.27
same,relative viability,LCLC-103H; first compound 2.53 µM,1.04
same,relative viability,SK-LU-1; first compound 0.08 µM,1.17
same,relative viability,SK-LU-1; first compound 0.253 µM,0.988
same,relative viability,SK-LU-1; first compound 0.8 µM,1.08
same,relative viability,SK-LU-1; first compound 2.53 µM,1.11
same,relative viability,BEN; first compound 0.08 µM,0.912
same,relative viability,BEN; first compound 0.253 µM,0.824
same,relative viability,BEN; first compound 0.8 µM,0.792
same,relative viability,BEN; first compound 2.53 µM,0.593
same,relative viability,NCI-H2405; first compound 0.08 µM,1.02
same,relative viability,NCI-H2405; first compound 0.253 µM,1.05
same,relative viability,NCI-H2405; first compound 0.8 µM,0.991
same,relative viability,NCI-H2405; first compound 2.53 µM,0.963
same,relative viability,NCI-H727; first compound 0.08 µM,0.745
same,relative viability,NCI-H727; first compound 0.253 µM,0.768
same,relative viability,NCI-H727; first compound 0.8 µM,0.966
same,relative viability,NCI-H727; first compound 2.53 µM,0.805
same,relative viability,201T; first compound 0.08 µM,1.1
same,relative viability,201T; first compound 0.253 µM,1.05
same,relative viability,201T; first compound 0.8 µM,1.11
same,relative viability,201T; first compound 2.53 µM,1.11
same,relative viability,NCI-H1437; first compound 0.08 µM,0.486
same,relative viability,NCI-H1437; first compound 0.253 µM,0.504
same,relative viability,NCI-H1437; first compound 0.8 µM,0.454
same,relative viability,NCI-H1437; first compound 2.53 µM,0.53
same,relative viability,NCI-H647; first compound 0.08 µM,0.859
same,relative viability,NCI-H647; first compound 0.253 µM,0.818
same,relative viability,NCI-H647; first compound 0.8 µM,0.891
same,relative viability,NCI-H647; first compound 2.53 µM,1.11
same,relative viability,NCI-H1792; first compound 0.08 µM,0.912
same,relative viability,NCI-H1792; first compound 0.253 µM,0.833
same,relative viability,NCI-H1792; first compound 0.8 µM,0.921
same,relative viability,NCI-H1792; first compound 2.53 µM,0.935
same,relative viability,NCI-H2228; first compound 0.08 µM,0.801
same,relative viability,NCI-H2228; first compound 0.253 µM,0.821
same,relative viability,NCI-H2228; first compound 0.8 µM,0.97
same,relative viability,NCI-H2228; first compound 2.53 µM,1.07
same,relative viability,LCLC-97TM1; first compound 0.08 µM,0.631
same,relative viability,LCLC-97TM1; first compound 0.8 µM,0.657
same,relative viability,LCLC-97TM1; first compound 2.53 µM,0.688
same,relative viability,NCI-H1650; first compound 0.08 µM,0.209
same,relative viability,NCI-H1650; first compound 0.8 µM,0.198
same,relative viability,NCI-H1650; first compound 2.53 µM,0.194
O=c1cc(N2CCOCC2)oc2c(-c3cccc4c3sc3ccccc34)cccc12 + C[C@@H](Oc1cc(-c2cnn(C3CCNCC3)c2)cnc1N)c1c(Cl)ccc(F)c1Cl [Crizotinib] (partner 1 µM),relative viability,CAL-12T; first compound 0.01 µM,0.58
same,relative viability,CAL-12T; first compound 0.03162 µM,0.657
same,relative viability,CAL-12T; first compound 0.1 µM,0.767
same,relative viability,CAL-12T; first compound 0.3162 µM,0.591
same,relative viability,CAL-12T; first compound 1 µM,0.775
same,relative viability,NCI-H322M; first compound 0.01 µM,0.94
same,relative viability,NCI-H322M; first compound 0.03162 µM,0.842
same,relative viability,NCI-H322M; first compound 0.3162 µM,0.943
same,relative viability,NCI-H322M; first compound 1 µM,0.84
same,relative viability,HCC-827; first compound 0.01 µM,0.918
same,relative viability,HCC-827; first compound 0.03162 µM,0.939
same,relative viability,HCC-827; first compound 0.1 µM,0.873
same,relative viability,HCC-827; first compound 0.3162 µM,0.965
same,relative viability,HCC-827; first compound 1 µM,0.956
same,relative viability,NCI-H2087; first compound 0.01 µM,0.884
same,relative viability,NCI-H2087; first compound 0.03162 µM,1.07
same,relative viability,NCI-H2087; first compound 0.1 µM,0.84
same,relative viability,NCI-H2087; first compound 0.3162 µM,0.682
same,relative viability,NCI-H2087; first compound 1 µM,0.838
same,relative viability,RERF-LC-KJ; first compound 0.01 µM,0.838
same,relative viability,RERF-LC-KJ; first compound 0.03162 µM,0.798
same,relative viability,RERF-LC-KJ; first compound 0.1 µM,0.871
same,relative viability,RERF-LC-KJ; first compound 0.3162 µM,0.823
same,relative viability,RERF-LC-KJ; first compound 1 µM,0.808
same,relative viability,LXF-289; first compound 0.01 µM,0.814
same,relative viability,LXF-289; first compound 0.03162 µM,0.806
same,relative viability,LXF-289; first compound 0.1 µM,0.794
same,relative viability,LXF-289; first compound 0.3162 µM,0.789
same,relative viability,LXF-289; first compound 1 µM,0.755
same,relative viability,NCI-H3122; first compound 0.01 µM,0.269
same,relative viability,NCI-H3122; first compound 0.03162 µM,0.273
same,relative viability,NCI-H3122; first compound 0.1 µM,0.274
same,relative viability,NCI-H3122; first compound 0.3162 µM,0.297
same,relative viability,NCI-H3122; first compound 1 µM,0.284
same,relative viability,LCLC-103H; first compound 0.01 µM,1.06
same,relative viability,LCLC-103H; first compound 0.03162 µM,0.976
same,relative viability,LCLC-103H; first compound 0.1 µM,1.12
same,relative viability,LCLC-103H; first compound 0.3162 µM,0.958
same,relative viability,LCLC-103H; first compound 1 µM,1.07
same,relative viability,SK-LU-1; first compound 0.03162 µM,0.897
same,relative viability,SK-LU-1; first compound 0.1 µM,0.828
same,relative viability,SK-LU-1; first compound 0.3162 µM,0.993
same,relative viability,SK-LU-1; first compound 1 µM,0.877
same,relative viability,BEN; first compound 0.01 µM,0.853
same,relative viability,BEN; first compound 0.03162 µM,0.892
same,relative viability,BEN; first compound 0.1 µM,0.877
same,relative viability,BEN; first compound 0.3162 µM,0.951
same,relative viability,BEN; first compound 1 µM,0.893
same,relative viability,NCI-H2405; first compound 0.01 µM,0.814
same,relative viability,NCI-H2405; first compound 0.03162 µM,0.856
same,relative viability,NCI-H2405; first compound 0.1 µM,0.915
same,relative viability,NCI-H2405; first compound 0.3162 µM,0.849
same,relative viability,NCI-H2405; first compound 1 µM,0.84
same,relative viability,NCI-H727; first compound 0.01 µM,0.887
same,relative viability,NCI-H727; first compound 0.03162 µM,0.893
same,relative viability,NCI-H727; first compound 0.1 µM,0.751
same,relative viability,NCI-H727; first compound 0.3162 µM,0.734
same,relative viability,NCI-H727; first compound 1 µM,0.932
same,relative viability,201T; first compound 0.01 µM,1
same,relative viability,201T; first compound 0.03162 µM,1.01
same,relative viability,201T; first compound 0.1 µM,0.981
same,relative viability,201T; first compound 0.3162 µM,1.01
same,relative viability,201T; first compound 1 µM,1.03
same,relative viability,NCI-H1944; first compound 0.01 µM,1.05
same,relative viability,NCI-H1944; first compound 0.03162 µM,1.03
same,relative viability,NCI-H1944; first compound 0.1 µM,1.18
same,relative viability,NCI-H1944; first compound 0.3162 µM,1.03
same,relative viability,NCI-H1944; first compound 1 µM,1.04
same,relative viability,NCI-H1437; first compound 0.01 µM,0.963
same,relative viability,NCI-H1437; first compound 0.03162 µM,0.896
same,relative viability,NCI-H1437; first compound 0.1 µM,0.959
same,relative viability,NCI-H1437; first compound 0.3162 µM,0.915
same,relative viability,NCI-H1437; first compound 1 µM,0.82
same,relative viability,NCI-H647; first compound 0.01 µM,1.12
same,relative viability,NCI-H647; first compound 0.03162 µM,1.23
same,relative viability,NCI-H647; first compound 0.1 µM,1.08
same,relative viability,NCI-H647; first compound 0.3162 µM,0.949
same,relative viability,NCI-H647; first compound 1 µM,0.939
same,relative viability,NCI-H1792; first compound 0.01 µM,0.967
same,relative viability,NCI-H1792; first compound 0.03162 µM,0.923
same,relative viability,NCI-H1792; first compound 0.1 µM,0.741
same,relative viability,NCI-H1792; first compound 0.3162 µM,0.939
same,relative viability,NCI-H1792; first compound 1 µM,0.95
same,relative viability,NCI-H2228; first compound 0.03162 µM,0.479
same,relative viability,NCI-H2228; first compound 0.1 µM,0.501
same,relative viability,NCI-H2228; first compound 0.3162 µM,0.403
same,relative viability,NCI-H2228; first compound 1 µM,0.471
same,relative viability,LCLC-97TM1; first compound 0.01 µM,0.444
same,relative viability,LCLC-97TM1; first compound 0.03162 µM,0.339
same,relative viability,LCLC-97TM1; first compound 0.3162 µM,0.281
same,relative viability,LCLC-97TM1; first compound 1 µM,0.39
same,relative viability,NCI-H1650; first compound 0.03162 µM,0.906
same,relative viability,NCI-H1650; first compound 0.1 µM,0.872
same,relative viability,NCI-H1650; first compound 0.3162 µM,0.826
same,relative viability,NCI-H1650; first compound 1 µM,0.921
